According to US5688938A, “Calcium receptor-active molecules” (priority 1995, dated 1997):

Experiments:
[1] = target: T1, bovine parathyroid cell calcium receptor (Bos taurus, UniProt P35384); assay: Cl^- current in Xenopus oocytes expressing BoPCaR 1; format: cell-based
T1 construct: expressed in transfected cells; host or cells: Xenopus laevis oocytes injected with cRNA from BoPCaR 1
T1 sequence (P35384 21-1085 limits assumed): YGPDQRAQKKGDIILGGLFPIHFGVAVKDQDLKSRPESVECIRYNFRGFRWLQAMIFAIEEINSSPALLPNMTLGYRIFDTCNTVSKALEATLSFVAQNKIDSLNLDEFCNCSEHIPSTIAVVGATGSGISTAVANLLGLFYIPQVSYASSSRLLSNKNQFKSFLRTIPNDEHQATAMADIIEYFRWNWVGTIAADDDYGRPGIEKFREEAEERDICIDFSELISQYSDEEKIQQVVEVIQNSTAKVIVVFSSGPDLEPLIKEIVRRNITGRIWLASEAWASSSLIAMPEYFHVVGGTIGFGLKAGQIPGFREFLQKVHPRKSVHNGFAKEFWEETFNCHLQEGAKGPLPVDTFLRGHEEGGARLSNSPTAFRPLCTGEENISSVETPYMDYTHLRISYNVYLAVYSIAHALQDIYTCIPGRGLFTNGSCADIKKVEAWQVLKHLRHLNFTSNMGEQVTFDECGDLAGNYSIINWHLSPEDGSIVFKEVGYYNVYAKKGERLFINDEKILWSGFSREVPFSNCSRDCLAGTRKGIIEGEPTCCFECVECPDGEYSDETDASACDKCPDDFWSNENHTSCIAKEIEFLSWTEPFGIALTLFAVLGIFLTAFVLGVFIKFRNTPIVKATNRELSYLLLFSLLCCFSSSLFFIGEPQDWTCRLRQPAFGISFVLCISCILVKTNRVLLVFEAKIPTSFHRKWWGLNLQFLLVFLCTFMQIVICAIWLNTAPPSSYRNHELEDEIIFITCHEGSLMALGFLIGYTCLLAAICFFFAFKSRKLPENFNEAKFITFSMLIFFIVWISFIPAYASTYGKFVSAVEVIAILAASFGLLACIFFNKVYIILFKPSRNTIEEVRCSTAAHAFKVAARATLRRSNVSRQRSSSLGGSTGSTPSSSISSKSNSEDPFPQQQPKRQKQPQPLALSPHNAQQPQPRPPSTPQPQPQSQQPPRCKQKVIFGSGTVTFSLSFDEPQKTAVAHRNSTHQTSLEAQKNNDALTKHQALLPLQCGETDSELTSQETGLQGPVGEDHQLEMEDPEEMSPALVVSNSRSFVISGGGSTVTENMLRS
Procedure: These responses are mediated by the following series of biochemical events:
Xenopus oocytes were injected with BoPCaR 1, the 5.3 Kb cDNA encoding a bovine parathyroid cell calcium receptor as described in Example 25. After two to three days, Cl^- currents were examined in the oocytes using a two-electrode voltage clamp.
Xenopus oocytes were injected with BoPCaR 1 as described in Example 25. After two to three days, Cl^- currents were examined in the oocytes using two electrode voltage clamp.

[2] = target: T2, human parathyroid cell calcium receptor (Homo sapiens, UniProt P41180); assay: Cl^- current in Xenopus oocytes expressing cloned human parathyroid calcium receptor; format: cell-based; settings: for Cl^- current: 0.3 mM extracellular Ca^2+, NPS 019 3 to 30 μM
T2 construct: cRNA injected in Xenopus oocytes
T2 sequence (P41180 20-1078 R990G/E1011Q): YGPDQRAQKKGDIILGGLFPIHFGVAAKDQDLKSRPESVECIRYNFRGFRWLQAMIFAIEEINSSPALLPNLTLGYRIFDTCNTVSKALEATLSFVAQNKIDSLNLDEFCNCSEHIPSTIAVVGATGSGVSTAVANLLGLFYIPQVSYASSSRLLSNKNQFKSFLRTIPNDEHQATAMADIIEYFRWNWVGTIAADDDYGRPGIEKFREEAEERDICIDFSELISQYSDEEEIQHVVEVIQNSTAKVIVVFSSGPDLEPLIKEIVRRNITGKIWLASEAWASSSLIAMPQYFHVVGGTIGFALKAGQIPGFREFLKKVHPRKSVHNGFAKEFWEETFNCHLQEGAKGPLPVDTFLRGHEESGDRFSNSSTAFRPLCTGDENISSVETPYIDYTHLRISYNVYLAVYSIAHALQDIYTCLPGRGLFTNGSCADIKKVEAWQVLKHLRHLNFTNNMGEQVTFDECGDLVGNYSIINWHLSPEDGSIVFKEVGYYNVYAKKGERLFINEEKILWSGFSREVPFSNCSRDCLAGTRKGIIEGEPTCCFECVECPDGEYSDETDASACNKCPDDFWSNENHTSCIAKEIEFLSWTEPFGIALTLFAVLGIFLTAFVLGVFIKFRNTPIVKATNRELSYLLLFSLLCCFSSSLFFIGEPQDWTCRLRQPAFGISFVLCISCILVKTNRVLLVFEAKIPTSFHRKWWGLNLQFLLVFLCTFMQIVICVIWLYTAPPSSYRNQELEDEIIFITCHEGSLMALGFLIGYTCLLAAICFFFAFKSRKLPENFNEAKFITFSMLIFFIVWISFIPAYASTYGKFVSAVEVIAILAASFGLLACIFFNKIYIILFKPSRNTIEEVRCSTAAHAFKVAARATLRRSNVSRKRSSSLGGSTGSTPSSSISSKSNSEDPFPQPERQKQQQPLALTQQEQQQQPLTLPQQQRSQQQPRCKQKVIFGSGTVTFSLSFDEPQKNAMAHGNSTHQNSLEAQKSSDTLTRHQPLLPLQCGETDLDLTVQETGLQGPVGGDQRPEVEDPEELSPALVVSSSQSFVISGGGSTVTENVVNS
Procedure: Representative cDNA inserts for both size classes were subcloned into the plasmid vector pBluescript SK. Linearization followed by in vitro transcription using T7 RNA polymerase produced cRNA transcripts. The cRNA transcripts were injected into Xenopus oocytes (150 ng/μl RNA; 50 nl/oocyte) for functional analysis. Following incubation periods of 2-4 days, the oocytes were assayed for the presence of functional calcium receptors. Both clone types gave rise to functional calcium receptors as assessed by the stimulation of calcium-activated chloride currents upon addition of appropriate calcium receptor agonists. […] Thus, both clones encode a functional, human parathyroid cell calcium receptor.
Xenopus oocytes were injected with pHuPCaR 5.2, the 5.2 Kb cDNA encoding a parathyroid cell calcium receptor derived from a human parathyroid cell adenoma. (See Example 27.) After two to three days, Cl^- currents were measured in the oocytes using a two-electrode voltage clamp.

SMILES	inward currents ([1]; Ca^2+ 5 mM, Mg^2+ 1.0-20 mM, Gd^3+ 600 μM, neomycin 200 μM)	Cl^- current response in absence of extracellular Ca^2+ [2]	Cl^- current [2]	Cl^- current response in absence of extracellular Ca^2+ [1]	Cl^- current ([1]; 1 mM extracellular Ca^2+)	activation of oocyte-expressed human receptor ([2]; pHuPCaR 5.2 and 4.0)	effect on concentration-response curve of NPS 019 [1]	effect on responses to submaximal extracellular Ca^2+ [1]
NC[C@@H]1O[C@H](O[C@H]2[C@@H](O)[C@H](O[C@@H]3[C@@H](O)[C@H](N)C[C@H](N)[C@H]3O[C@H]3O[C@H](CN)[C@@H](O)[C@H](O)[C@H]3N)O[C@@H]2CO)[C@H](N)[C@@H](O)[C@@H]1O [Neomycin]	large inward currents	–	–	–	–	–	–	–
NCCCNCCCCNCCCNCCCNCCCNC(=O)Cc1c[nH]c2ccccc12 [NPS 019, reference compound]	–	persisted	evoked increases in the Cl^- current	persisted	oscillatory increases in the Cl^- current	–	–	–
COc1cccc([C@@H](C)NCCCc2ccccc2Cl)c1 [NPS R-568, (R)-(+)-N-[3-(2-chlorophenyl)propyl]-α-methyl-3-methoxybenzylamine]	–	abolished	evoked increases in the Cl^- current	abolished	–	activated the oocyte-expressed receptor at about the same concentrations	shifts the concentration-response curve of NPS 019 to the left	potentiated the responses
